These results are taken from PMC4037345 (ChemMedChem, 2014).

The test system of one series is SKOV3. Description: Resazurin-based viability assay, 48 hr treatment, SKOV3. The series is classed as cell-based, human. The following applies: read-out: SKOV3 IC50. On the technique in general: Resazurin is reduced to fluorescent resorufin, in cell work by metabolically active cells.
A further series has as its target Albumin (Homo sapiens, UniProt P02768). The following applies: parent drugs; cited from earlier work.
For the next series, the system named is OVCA429. Description: Resazurin-based viability assay, 48 hr treatment, OVCA429. It is filed as cell-based, human. The following applies: read-out: OVCA429 IC50.
The conditions of series [1]: parent drugs; cited from earlier work.
For series [2] the following is noted: cited from earlier work.

What is called IC50 is the midpoint of a concentration-inhibition curve.

Each structure is given as a SMILES string.

Albumin, sequence (P02768 25-609, species assumed): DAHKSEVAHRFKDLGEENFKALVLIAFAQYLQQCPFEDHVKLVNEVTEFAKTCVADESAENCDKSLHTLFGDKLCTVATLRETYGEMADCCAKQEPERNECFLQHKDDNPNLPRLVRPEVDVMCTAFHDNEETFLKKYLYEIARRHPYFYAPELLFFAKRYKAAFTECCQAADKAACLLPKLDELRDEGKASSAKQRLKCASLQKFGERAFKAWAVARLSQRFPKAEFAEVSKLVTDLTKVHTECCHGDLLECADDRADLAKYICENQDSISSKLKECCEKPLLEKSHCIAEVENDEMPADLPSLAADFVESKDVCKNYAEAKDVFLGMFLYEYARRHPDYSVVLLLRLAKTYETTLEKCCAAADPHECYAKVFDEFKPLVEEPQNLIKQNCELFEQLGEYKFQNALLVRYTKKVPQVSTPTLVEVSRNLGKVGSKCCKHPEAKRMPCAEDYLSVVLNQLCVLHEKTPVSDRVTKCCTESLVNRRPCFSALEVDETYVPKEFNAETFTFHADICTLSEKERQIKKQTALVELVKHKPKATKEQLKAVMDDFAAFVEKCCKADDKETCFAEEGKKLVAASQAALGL

As for `N.N.O=C([O-])C1(C(=O)[O-])CCC1.[Pt+2]` [Carboplatin, carboplatin], the IC50 in the series on SKOV3 turned out to be 100 ± 6 µM; in the series with OVCA429, 210 ± 6 µM. In addition, at Albumin, the “% Albumin Binding” value was 40[29] %. The logP in series [1] was -2.3[30]. Moreover, the “t1/2 initial (initial plasma half-life)” value in series [2] was 5[32-33] min.

`N.N.[Cl][Pt][Cl]` [Cisplatin, cisplatin]: the IC50 with SKOV3 was 3 ± 0.3 µM; with OVCA429, 15 ± 1 µM.
